Source: EP0500785B1, “A HUMAN T CELL REACTIVE FELINE PROTEIN (TRFP) ISOLATED FROM HOUSE DUST AND USES THEREFOR” (IMMULOGIC PHARMACEUTICAL CORPORATION, priority 1989, dated 2002)

Tested on: TRFP primed T cell cultures
Experiment: T cell proliferation assay (tritiated thymidine incorporation) of TRFP-primed T cells restimulated with allergens or peptides
Assay type: cell-based, human
Description: Peripheral blood mononuclear cells (PBMC) were purified from 60 ml of heparinized blood from cat allergic patients. PBMC were subsequently treated as described below, although in individual cases, the length of time of cultivation with IL-2 and/or IL-4 and the specific peptides used for stimulation varied.
10 ml of PBMC from patient 131 at 10^6/ml were cultured at 37°C for 7 days in the presence of 5 micrograms purified TRFP/ml RPMI-1640 supplemented with 5% pooled human AB serum. Viable cells were purified by Ficoll-Hypaque centrifugation and cultured for three weeks at 5 units recombinant human IL-2/ml and 5 units recombinant human IL-4/ml. The resting T cells were then restimulated (secondary) with 5 micrograms TRFP at 2 x 10^5/ml in the presence of irradiated (3500 Rads) autologous PBMC at a concentration of 5 x 10^5/ml for three days, purified by Ficoll-Hypaque centrifugation and grown in 5 units IL-2 and 5 units IL-4/ml for two weeks. For assay, 2 x 10^4 resting secondary T cells were restimulated (tertiary) in the presence of 5 x 10^4 irradiated (3500 Rads) autologous PBMC or 2 x 10^4 transformed B cells (20,000 Rads) with various concentrations of allergens or their fragments in a volume of 200 microliters in a 96-well round bottom assay plates for 3 days. Each well then received 1 microCurie tritiated (methyl) thymidine for 16 hours. The counts incorporated were collected onto glass fiber filters and processed for liquid scintillation counting.
Antigens used: T cell reactive feline protein (TRFP), Hollister-Stier cat epithelium skin test reagent (CST), IPC ragweed pollen extract (pollen), and synthetic peptides derived from the TRFP protein sequence (See Figures 6 and 7). Significant T cell proliferation is generally regarded as greater than 2.5 times the media control (T cells and antigen presenting cells alone).
Alternatively, PBMC were treated as follows: the primary stimulated cells were cultured in IL-2/IL-4 for two weeks. The resting T cells derived from this culture were tested in a secondary assay with some, but not all, of the above allergens. […] This type of epitope analysis has allowed the definition of T cell epitopes present in TRFP.

[1] = Chain #1 TRFP peptides, average cpm with antigen divided by cpm of T cells and antigen presenting cells alone, responding patients, SI ≥ 2.5 positive
[2] = Chain #1 TRFP peptides, cat allergic patients, average SI of all responding patients multiplied by percent of patients with a positive response
[3] = Chain #2 TRFP peptides, cat allergic patients, average SI of responding patients multiplied by percent positive
[4] = Chain #2 TRFP peptides, cat allergic patients, average of responding patients

Substance	SI [1]	PI [2]	PI [3]	SI [4]
Fel 3-15: TRFP chain 1 peptide, amino acids 18 - 29 (PDEYVEQVAQYK; UniProt P30438 40-51, looked up, fragment)	10.4	1040	–	–
Fel 8-1: TRFP chain 1 peptide, amino acids 5 - 33 (AVKRDVDLFLTGTPDEYVEQVAQYKALPV; UniProt P30438 27-55, looked up, fragment)	15.1	1374	–	–
Fel 30-8: TRFP chain 1 peptide, amino acids 28 - 55 (YKALPVVLENARILKNCVDAKMTEEDKE; UniProt P30438 50-77, looked up, fragment)	4.1	262	–	–
Fel 23: TRFP chain 1 peptide, amino acids 51 - 66 (EEDKENALSVLDKIYT; UniProt P30438 73-88, looked up, fragment)	6.6	343	–	–
Fel 14-4: TRFP chain 1 peptide, amino acids 26 - 36 (AQYKALPVVLE; UniProt P30438 48-58, looked up, fragment)	6.0	474	–	–
Fel 30-5: TRFP chain 1 peptide, amino acids 29 - 54 (KALPVVLENARILKNCVDAKMTEEDK; UniProt P30438 51-76, looked up, fragment)	11.0	792	–	–
Fel 15: TRFP chain 1 peptide, amino acids 44 - 60 (CVDAKMTEEDKENALSV; UniProt P30438 66-82, looked up, fragment)	11.0	440	–	–
Fel 3-13: TRFP chain 1 peptide, amino acids 18 - 28 (PDEYVEQVAQY; UniProt P30438 40-50, looked up, fragment)	11.5	690	–	–
Fel 14-5: TRFP chain 1 peptide, amino acids 27 - 36 (QYKALPVVLE; UniProt P30438 49-58, looked up, fragment)	5.4	286	–	–
Fel 31-5: TRFP chain 2 peptide, amino acids 14 - 36 (FFAVANGNELLLDLSLTKVNATE; UniProt P30440 31-53, looked up, fragment)	–	–	539	7.6
Fel 30-4: TRFP chain 1 peptide, amino acids 29 - 55 (KALPVVLENARILKNCVDAKMTEEDKE; UniProt P30438 51-77, looked up, fragment)	11.6	1079	–	–
Fel 3-1: TRFP chain 1 peptide, amino acids 18 - 33 (PDEYVEQVAQYKALPV; UniProt P30438 40-55, looked up, fragment)	9.4	638	–	–
Fel 31-2: TRFP chain 2 peptide, amino acids 14 - 39 (FFAVANGNELLLDLSLTKVNATEPER; UniProt P30440 31-56, looked up, fragment)	–	–	599	8.1
Fel 8-2: TRFP chain 1 peptide, amino acids 6 - 33 (VKRDVDLFLTGTPDEYVEQVAQYKALPV; UniProt P30438 28-55, looked up, fragment)	15.2	1353	–	–
Fel 14-1: TRFP chain 1 peptide, amino acids 23 - 36 (EQVAQYKALPVVLE; UniProt P30438 45-58, looked up, fragment)	9.9	871	–	–
Fel 31-7: TRFP chain 2 peptide, amino acids 15 - 36 (FAVANGNELLLDLSLTKVNATE; UniProt P30440 32-53, looked up, fragment)	–	–	267	5.8
Fel 1-2: TRFP chain 1 peptide, amino acids 1 - 17 (EICPAVKRDVDLFLTGT; UniProt P30438 23-39, looked up, fragment)	7.4	311	–	–
Fel 31-6: TRFP chain 2 peptide, amino acids 15 - 40 (FAVANGNELLLDLSLTKVNATEPERT; UniProt P30440 32-57, looked up, fragment)	–	–	295	4.4
Fel 31-1: TRFP chain 2 peptide, amino acids 14 - 40 (FFAVANGNELLLDLSLTKVNATEPERT; UniProt P30440 31-57, looked up, fragment)	–	–	733	9.4
Fel 32-2: TRFP chain 2 peptide, amino acids 14 - 24 (FFAVANGNELL; UniProt P30440 31-41, looked up, fragment)	–	–	424	5.3
Fel 32-1: TRFP chain 2 peptide, amino acids 12 - 24 (DVFFAVANGNELL; UniProt P30440 29-41, looked up, fragment)	–	–	442	6.6
Fel 30-2: TRFP chain 1 peptide, amino acids 25 - 48 (VAQYKALPVVLENARILKNCVDAK; UniProt P30438 47-70, looked up, fragment)	4.2	248	–	–
Fel 30-7: TRFP chain 1 peptide, amino acids 26 - 55 (AQYKALPVVLENARILKNCVDAKMTEEDKE; UniProt P30438 48-77, looked up, fragment)	5.3	339	–	–
Fel 30-3: TRFP chain 1 peptide, amino acids 25 - 47 (VAQYKALPVVLENARILKNCVDA; UniProt P30438 47-69, looked up, fragment)	4.8	230	–	–
Fel 14-2: TRFP chain 1 peptide, amino acids 29 - 42 (KALPVVLENARILK; UniProt P30438 51-64, looked up, fragment)	5.6	336	–	–
Fel 3-11: TRFP chain 1 peptide, amino acids 18 - 30 (PDEYVEQVAQYKA; UniProt P30438 40-52, looked up, fragment)	10.4	863	–	–
Fel 31-4: TRFP chain 2 peptide, amino acids 14 - 37 (FFAVANGNELLLDLSLTKVNATEP; UniProt P30440 31-54, looked up, fragment)	–	–	622	8.4
